Reference: ChEMBL document CHEMBL2146453, “Synthesis of novel ursolic acid heterocyclic derivatives with improved abilities of antiproliferation and induction of p53, p21waf1 and NOXA in pancreatic cancer cells” (Bioorg Med Chem, 2012)

Tests used:
Format in all cases: functional, cell-based
[1] = test system: ASPC1; assay: Cytotoxicity against human AsPC1 cells after 72 hrs by MTT assay; conditions: ASPC1, 72 h
[2] = test system: PC-3; assay: Cytotoxicity against human PC3 cells after 72 hrs by MTT assay; conditions: PC-3, 72 h
[3] = test system: A549; assay: Cytotoxicity against human A549 cells after 72 hrs by MTT assay; conditions: A549, 72 h
[4] = test system: MIA PaCa-2; assay: Cytotoxicity against human MIAPaCa2 cells after 72 hrs by MTT assay; conditions: MIA PaCa-2, 72 h
[5] = test system: PANC-1; assay: Cytotoxicity against human PANC1 cells after 72 hrs by MTT assay; conditions: PANC-1, 72 h
[6] = test system: MCF7; assay: Cytotoxicity against human MCF7 cells after 72 hrs by MTT assay; conditions: MCF7, 72 h
[7] = test system: HepG2; assay: Cytotoxicity against human HepG2 cells after 72 hrs by MTT assay; conditions: HepG2, 72 h

Question: How did the IC50 [1] turn out when `CC(=O)O[C@H]1CC[C@]2(C)[C@H]3CC=C4[C@@H]5[C@@H](C)[C@H](C)CC[C@]5(C(=O)n5cnnc5)CC[C@@]4(C)[C@]3(C)CC[C@H]2C1(C)C` was run?
Answer: The IC50 was 23.3 µM.

Question: Which IC50 [1] does the source give for `C[C@H]1[C@H](C)CC[C@]2(C(=O)O)CC[C@]3(C)C(=CC[C@@H]4[C@@]5(C)C/C(=C/O)C(=O)C(C)(C)[C@@H]5CC[C@]43C)[C@H]12` here?
Answer: Its IC50 is 13.4 µM.

Question: Which IC50 [1] does the source give for `COC(=O)[C@]12CC[C@@H](C)[C@H](C)[C@H]1C1=CC[C@@H]3[C@@]4(C)C/C(=C/O)C(=O)C(C)(C)[C@@H]4CC[C@@]3(C)[C@]1(C)CC2` here?
Answer: The IC50 was 7.2 µM.

Question: For `Cc1nccn1/C=C1/C[C@]2(C)[C@H]3CC=C4[C@@H]5[C@@H](C)[C@H](C)CC[C@]5(C(=O)n5ccnc5C)CC[C@@]4(C)[C@]3(C)CC[C@H]2C(C)(C)C1=O`, which IC50 [1] is on record?
Answer: The IC50 was 11.3 µM.

Question: How did the IC50 [1] turn out when `CC(=O)O[C@H]1CC[C@]2(C)[C@H]3C(=O)C=C4[C@@H]5[C@@H](C)[C@H](C)CC[C@]5(C(=O)n5ccnc5)CC[C@@]4(C)[C@]3(C)CC[C@H]2C1(C)C` was run?
Answer: The IC50 was 13.9 µM.

Question: Which IC50 [1] does the source give for `COC(=O)[C@]12CC[C@@H](C)[C@H](C)[C@H]1C1=CC[C@@H]3[C@@]4(C)CC[C@H](O)C(C)(C)[C@@H]4CC[C@@]3(C)[C@]1(C)CC2` [METHYL URSOLATE] here?
Answer: Its IC50 is 17.7 µM.

Question: For `C[C@H]1[C@H](C)CC[C@]2(C(=O)n3cnnc3)CC[C@]3(C)C(=CC[C@@H]4[C@@]5(C)C/C(=C/n6cnnc6)C(=O)C(C)(C)[C@@H]5CC[C@]43C)[C@H]12`, which IC50 [1] is on record?
Answer: The IC50 was 3.9 µM.

Question: How did the IC50 [1] turn out when `C[C@H]1[C@H](C)CC[C@]2(C(=O)n3cnnc3)CC[C@]3(C)C(=CC[C@@H]4[C@@]5(C)CCC(=O)C(C)(C)[C@@H]5CC[C@]43C)[C@H]12` was run?
Answer: Its IC50 is 19.2 µM.

Question: With `C[C@H]1[C@H](C)CC[C@]2(C(=O)n3ccnc3)CC[C@]3(C)C(=CC(=O)[C@@H]4[C@@]5(C)CCC(=O)C(C)(C)[C@@H]5CC[C@]43C)[C@H]12` as the molecule, how does the IC50 [1] read?
Answer: Its IC50 is 11.7 µM.

Question: With `COC(=O)[C@]12CC[C@@H](C)[C@H](C)[C@H]1C1=CC[C@@H]3[C@@]4(C)C/C(=C/n5ccnc5)C(=O)C(C)(C)[C@@H]4CC[C@@]3(C)[C@]1(C)CC2` as the molecule, how does the IC50 [2] read?
Answer: Its IC50 is 6.8 µM.

Question: What about the IC50 [3] of the same molecule?
Answer: The IC50 was 5.6 µM.

Question: And the IC50 [4]?
Answer: Its IC50 is 7.3 µM.

Question: And the IC50 [5]?
Answer: Its IC50 is 5.1 µM.

Question: And the IC50 [6]?
Answer: Its IC50 is 5.3 µM.

Question: And the IC50 [7]?
Answer: The IC50 was 2 µM.

Question: What about the IC50 [1] of the same molecule?
Answer: Its IC50 is 5.8 µM.

Question: `C[C@H]1[C@H](C)CC[C@]2(C(=O)n3ccnc3)CC[C@]3(C)C(=CC[C@@H]4[C@@]5(C)CCC(=O)C(C)(C)[C@@H]5CC[C@]43C)[C@H]12` was tested. Which IC50 [1] did it give?
Answer: Its IC50 is 15.2 µM.

Question: With `COC(=O)[C@]12CC[C@@H](C)[C@H](C)[C@H]1C1=CC(=O)[C@@H]3[C@@]4(C)C/C(=C/O)C(=O)C(C)(C)[C@@H]4CC[C@@]3(C)[C@]1(C)CC2` as the molecule, how does the IC50 [1] read?
Answer: The IC50 was 9 µM.

Question: Which results are given for `C[C@H]1[C@H](C)CC[C@]2(C(=O)O)CC[C@]3(C)C(=CC[C@@H]4[C@@]5(C)CC[C@H](O)C(C)(C)[C@@H]5CC[C@]43C)[C@H]12` [URSOLIC ACID]?
Answer: IC50 [2]: 20.8 µM; IC50 [3]: 11.4 µM; IC50 [4]: 10.4 µM; IC50 [5]: 14.9 µM; IC50 [6]: 12.3 µM; IC50 [7]: 15 µM; IC50 [1]: 12.6 µM

Question: What does the source list for `COC(=O)[C@]12CC[C@@H](C)[C@H](C)[C@H]1C1=CC(=O)[C@@H]3[C@@]4(C)C/C(=C/n5ccnc5)C(=O)C(C)(C)[C@@H]4CC[C@@]3(C)[C@]1(C)CC2`?
Answer: IC50 [2]: 12.9 µM; IC50 [3]: 12.2 µM; IC50 [4]: 24.3 µM; IC50 [5]: 18.2 µM; IC50 [6]: 9.4 µM; IC50 [7]: 27.6 µM; IC50 [1]: 2.3 µM

Question: `CC(=O)O[C@H]1CC[C@]2(C)[C@H]3C(=O)C=C4[C@@H]5[C@@H](C)[C@H](C)CC[C@]5(C(=O)n5cnnc5)CC[C@@]4(C)[C@]3(C)CC[C@H]2C1(C)C` was tested. Which IC50 [1] did it give?
Answer: The IC50 was 10.2 µM.

Question: For `C[C@H]1[C@H](C)CC[C@]2(C(=O)O)CC[C@]3(C)C(=CC[C@@H]4[C@@]5(C)CCC(=O)C(C)(C)[C@@H]5CC[C@]43C)[C@H]12` [URSONIC ACID], which IC50 [1] is on record?
Answer: Its IC50 is 24.5 µM.

Question: For `Cc1nccn1C(=O)[C@]12CC[C@@H](C)[C@H](C)[C@H]1C1=CC(=O)[C@@H]3[C@@]4(C)CCC(=O)C(C)(C)[C@@H]4CC[C@@]3(C)[C@]1(C)CC2`, which IC50 [1] is on record?
Answer: Its IC50 is 5.1 µM.

Question: For `CC(=O)O[C@H]1CC[C@]2(C)[C@H]3C(=O)C=C4[C@@H]5[C@@H](C)[C@H](C)CC[C@]5(C(=O)O)CC[C@@]4(C)[C@]3(C)CC[C@H]2C1(C)C` [11-OXOURSOLIC ACID ACETATE], which IC50 [1] is on record?
Answer: Its IC50 is 33.5 µM.

Question: How did the IC50 [1] turn out when `Cc1nccn1C(=O)[C@]12CC[C@@H](C)[C@H](C)[C@H]1C1=CC[C@@H]3[C@@]4(C)CCC(=O)C(C)(C)[C@@H]4CC[C@@]3(C)[C@]1(C)CC2` was run?
Answer: Its IC50 is 19.6 µM.

Question: With `CC(=O)O[C@H]1CC[C@]2(C)[C@H]3C(=O)C=C4[C@@H]5[C@@H](C)[C@H](C)CC[C@]5(C(=O)n5ccnc5C)CC[C@@]4(C)[C@]3(C)CC[C@H]2C1(C)C` as the molecule, how does the IC50 [1] read?
Answer: Its IC50 is 15.3 µM.

Question: For `C[C@H]1[C@H](C)CC[C@]2(C(=O)n3cnnc3)CC[C@]3(C)C(=CC(=O)[C@@H]4[C@@]5(C)CCC(=O)C(C)(C)[C@@H]5CC[C@]43C)[C@H]12`, which IC50 [1] is on record?
Answer: Its IC50 is 9.9 µM.

Question: How did the IC50 [2] turn out when `COC(=O)[C@]12CC[C@@H](C)[C@H](C)[C@H]1C1=CC(=O)[C@@H]3[C@@]4(C)C/C(=C/n5cnnc5)C(=O)C(C)(C)[C@@H]4CC[C@@]3(C)[C@]1(C)CC2` was run?
Answer: The IC50 was 9.5 µM.

Question: What about the IC50 [3] of the same molecule?
Answer: Its IC50 is 12.9 µM.

Question: What about the IC50 [4] of the same molecule?
Answer: Its IC50 is 7.8 µM.

Question: What about the IC50 [5] of the same molecule?
Answer: The IC50 was 12.1 µM.

Question: And the IC50 [6]?
Answer: Its IC50 is 12.5 µM.

Question: And the IC50 [7]?
Answer: The IC50 was 7.9 µM.

Question: What about the IC50 [1] of the same molecule?
Answer: Its IC50 is 8.1 µM.

Question: With `C[C@H]1[C@H](C)CC[C@]2(C(=O)n3ccnc3)CC[C@]3(C)C(=CC[C@@H]4[C@@]5(C)C/C(=C/n6ccnc6)C(=O)C(C)(C)[C@@H]5CC[C@]43C)[C@H]12` as the molecule, how does the IC50 [1] read?
Answer: The IC50 was 5.1 µM.

Question: With `C[C@H]1[C@H](C)CC[C@]2(C(=O)O)CC[C@]3(C)C(=CC(=O)[C@@H]4[C@@]5(C)CCC(=O)C(C)(C)[C@@H]5CC[C@]43C)[C@H]12` as the molecule, how does the IC50 [1] read?
Answer: The IC50 was 54.9 µM.

Question: How did the IC50 [1] turn out when `CC(=O)O[C@H]1CC[C@]2(C)[C@H]3CC=C4[C@@H]5[C@@H](C)[C@H](C)CC[C@]5(C(=O)n5ccnc5)CC[C@@]4(C)[C@]3(C)CC[C@H]2C1(C)C` was run?
Answer: Its IC50 is 15.2 µM.

Question: `CC(=O)O[C@H]1CC[C@]2(C)[C@H]3CC=C4[C@@H]5[C@@H](C)[C@H](C)CC[C@]5(C(=O)O)CC[C@@]4(C)[C@]3(C)CC[C@H]2C1(C)C` [O-ACETYLURSOLIC ACID] was tested. Which IC50 [1] did it give?
Answer: The IC50 was 71 µM.

Question: With `CC(=O)O[C@H]1CC[C@]2(C)[C@H]3CC=C4[C@@H]5[C@@H](C)[C@H](C)CC[C@]5(C(=O)n5ccnc5C)CC[C@@]4(C)[C@]3(C)CC[C@H]2C1(C)C` as the molecule, how does the IC50 [1] read?
Answer: The IC50 was 20.2 µM.

Question: What does the source list for `COC(=O)[C@]12CC[C@@H](C)[C@H](C)[C@H]1C1=CC[C@@H]3[C@@]4(C)C/C(=C/n5ccnc5C)C(=O)C(C)(C)[C@@H]4CC[C@@]3(C)[C@]1(C)CC2`?
Answer: IC50 [2]: 3.5 µM; IC50 [3]: 5.3 µM; IC50 [4]: 5.6 µM; IC50 [5]: 5.6 µM; IC50 [6]: 2.2 µM; IC50 [7]: 4 µM; IC50 [1]: 2.1 µM

Question: How did the IC50 [2] turn out when `COC(=O)[C@]12CC[C@@H](C)[C@H](C)[C@H]1C1=CC(=O)[C@@H]3[C@@]4(C)C/C(=C/n5ccnc5C)C(=O)C(C)(C)[C@@H]4CC[C@@]3(C)[C@]1(C)CC2` was run?
Answer: The IC50 was 5.7 µM.

Question: And the IC50 [3]?
Answer: The IC50 was 18.7 µM.

Question: What about the IC50 [4] of the same molecule?
Answer: The IC50 was 8.3 µM.

Question: What about the IC50 [5] of the same molecule?
Answer: Its IC50 is 14.4 µM.

Question: What about the IC50 [6] of the same molecule?
Answer: Its IC50 is 3.5 µM.

Question: What about the IC50 [7] of the same molecule?
Answer: Its IC50 is 8.5 µM.

Question: What about the IC50 [1] of the same molecule?
Answer: The IC50 was 2.1 µM.
